Test results reported in US10053477B2, “Spirocyclic aryl phosphorus oxide and aryl phosphorus sulfide” (QILU PHARMACEUTICAL CO., LTD., priority 2014, dated 2018).
One block for each compound: values may come before it.

Experiments:
[1] = tested on: LU-01-0015 xenotransplantation (PDX) from lung cancer patients; assay: In vivo efficacy, LU-01-0015 xenotransplantation (PDX) from lung cancer patients; design: species or system BALB/c nude mice; conditions: for Tumor volume: 25 mg/kg orally everyday
Description: BALB/c nude mice, female, 6 to 8 weeks, about 18 to 22 g bodyweight, was kept in a special environment without pathogens, and a single ventilated cage (5 mice per cage). Beddings and water in all the cages were disinfected before use. […] 80 mice were supplied by Shanghai BK Laboratory Animal Co., LTD for study. Each mouse was subcutaneously implanted tumor tissue (20-30 mm^3) at right flank for growth of tumor. When the average tumor volume reached about 250-300 mm^3, the assay started. Test compounds were delivered orally everyday, 25 mg/kg. Tumor size was measured with two-dimensional caliper every 3 days, size was recorded by mm^3, and calculated by the following formula: V=V=0.5a×b2, where a and b are respectively the long diameter and short diameter length of the tumor. The antitumor efficacy was determined by dividing the average increased tumor volume in compound-treated animal by the average increased tumor volume in untreated animal.

[2] = tested on: LU-01-0319 Crizotinib resistance model; assay: In vivo anti-tumor efficacy, Crizotinib resistant LU-01-0319 xenotransplantation (PDX) tumor; design: species or system BALB/c nude mice
Description: LU-01-0319 xenotransplantation tumor models initially obtained from clinical sample through surgical resection were implanted into nude mice, which was defined as a batch of P0 (LU-01-0319-P0). The next batch was defined as P1 (LU-01-0319-P1) which was implanted tumors from P0. FP3 was regained from P2, the next batch was defined as FP4 which was implanted tumors from FP3. […] The continuous increasing tumors were defined as LU-01-0319 antitumor models. BALB/c nude mice, female, 6 to 8 weeks, about 18 to 22 g bodyweight, 75 mice were used for study, supplied by Shanghai BK Laboratory Animal Co., LTD. Tumour biopsies (about 30 mm^3) of LU-01-0319R FP6 were implanted subcutaneously on right side of each mouse for growth of tumor. […] Dose of Crizotinib was appropriately varied depending on the tumor size. When average tumor volume reached about ˜500 mm^3, the assay began. Once a day the compounds to be tested were orally administered. Tumor size were measured twice a week with a caliper at two dimensions, and calculated with the following formula: V=0.5a×b2, where a and b are respectively long diameter and short diameter of the tumor. The antitumor efficacy was determined by dividing the average increased tumor volume in compound-treated animal by the average increased tumor volume in untreated animal.

[3] = tested on: LU-01-0319 xenotransplantation (PDX) from lung cancer patients; assay: In vivo efficacy, LU-01-0319 xenotransplantation (PDX) from lung cancer patients; design: species or system BALB/c nude mice; conditions: 10 mg/kg orally everyday
Description: BALB/c nude mice, female, 6 to 8 weeks, about 18 to 22 g bodyweight, was kept in a special environment without pathogens, and a single ventilated cage (5 mice per cage). Beddings and water in all the cages were disinfected before use. All the animal had free access to standard authorized commercially available lab diet. 80 mice were supplied by Shanghai BK Laboratory Animal Co., LTD for study. Each mouse was subcutaneously implanted tumor tissue (20-30 mm^3) at right flank for growth of tumor. When the average tumor volume reached about 250-300 mm^3, the assay started. Test compounds were delivered orally everyday, 10 mg/kg. Tumor size was measured with two-dimensional caliper every 3 days, size was recorded by mm^3, and calculated by the following formula: V=V=0.5a×b2, where a and b are respectively the long diameter and short diameter length of the tumor. The antitumor efficacy was determined by dividing the average increased tumor volume in compound-treated animal by the average increased tumor volume in untreated animal.

ALK L1196M = target: T1, ALK L1196M (Homo sapiens, UniProt Q9UM73, L1196M); assay: ALK L1196M enzymatic inhibition (HTRF); format: biochemical; conditions: 30 μM ATP
T1 construct: purchased Carna Biosciences (Japan)
T1 sequence (Q9UM73 19-1620 L1196M): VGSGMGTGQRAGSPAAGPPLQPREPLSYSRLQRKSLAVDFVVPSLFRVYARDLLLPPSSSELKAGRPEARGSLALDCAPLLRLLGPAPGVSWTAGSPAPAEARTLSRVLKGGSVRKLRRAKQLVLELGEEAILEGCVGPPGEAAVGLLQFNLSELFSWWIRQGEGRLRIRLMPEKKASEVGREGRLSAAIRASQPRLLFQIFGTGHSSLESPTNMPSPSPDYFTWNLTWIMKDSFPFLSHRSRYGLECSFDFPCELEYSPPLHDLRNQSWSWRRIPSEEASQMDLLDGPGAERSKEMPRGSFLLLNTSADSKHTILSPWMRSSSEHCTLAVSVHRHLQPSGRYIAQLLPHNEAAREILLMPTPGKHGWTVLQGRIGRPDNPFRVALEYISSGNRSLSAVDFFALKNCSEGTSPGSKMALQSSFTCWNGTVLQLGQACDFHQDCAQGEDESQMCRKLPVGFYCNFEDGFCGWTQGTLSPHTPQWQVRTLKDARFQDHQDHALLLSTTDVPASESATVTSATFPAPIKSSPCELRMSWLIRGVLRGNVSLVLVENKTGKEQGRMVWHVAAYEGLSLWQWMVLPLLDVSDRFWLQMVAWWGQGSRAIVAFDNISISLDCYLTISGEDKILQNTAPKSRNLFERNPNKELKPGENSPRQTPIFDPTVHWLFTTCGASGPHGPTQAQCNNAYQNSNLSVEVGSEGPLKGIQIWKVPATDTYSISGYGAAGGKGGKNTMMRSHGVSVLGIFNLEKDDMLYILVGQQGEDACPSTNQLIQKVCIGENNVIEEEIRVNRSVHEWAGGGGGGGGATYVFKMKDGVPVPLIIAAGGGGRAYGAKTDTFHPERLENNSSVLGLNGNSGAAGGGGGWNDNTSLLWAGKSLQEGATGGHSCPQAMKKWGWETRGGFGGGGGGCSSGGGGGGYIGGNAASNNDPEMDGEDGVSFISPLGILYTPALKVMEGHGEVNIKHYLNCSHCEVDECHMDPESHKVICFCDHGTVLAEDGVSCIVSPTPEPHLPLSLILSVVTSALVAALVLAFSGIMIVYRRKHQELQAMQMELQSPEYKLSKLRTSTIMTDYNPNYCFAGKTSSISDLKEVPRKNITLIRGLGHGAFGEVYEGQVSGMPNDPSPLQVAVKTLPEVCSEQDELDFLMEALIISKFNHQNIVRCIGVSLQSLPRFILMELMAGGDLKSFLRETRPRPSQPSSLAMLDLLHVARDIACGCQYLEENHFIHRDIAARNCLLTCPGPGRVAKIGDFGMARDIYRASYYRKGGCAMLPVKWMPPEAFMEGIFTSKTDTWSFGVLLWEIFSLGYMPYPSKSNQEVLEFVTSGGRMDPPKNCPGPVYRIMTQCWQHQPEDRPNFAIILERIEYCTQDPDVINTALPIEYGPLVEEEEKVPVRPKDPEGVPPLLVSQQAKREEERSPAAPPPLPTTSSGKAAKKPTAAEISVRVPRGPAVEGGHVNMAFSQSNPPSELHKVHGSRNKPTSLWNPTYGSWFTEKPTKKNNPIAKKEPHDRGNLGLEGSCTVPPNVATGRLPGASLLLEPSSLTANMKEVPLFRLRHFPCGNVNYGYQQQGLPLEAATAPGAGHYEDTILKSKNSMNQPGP
Description: (§1) Enzyme: ALK wild-type, ALK C1156Y and ALK L1196M supplied by Carna Biosciences (Japan), EGFR T790M/L858R supplied by Life technology (Madison, Wis.).
(§2) HTRF kit: supplied by Cis-Bio International, with Eu-marked TK1 antibody, XL665- and biotin-labelled TK1 polypeptide substrates.
Reaction buffer: 50 mM Hepes (pH7.5), 10 mM MgCl2, 0.01 mM NaV3VO4.
(§3) Incubation was carried out for 60 minutes at room temperature. Detection was by Envision.

ALK C1156Y = target: T2, ALK C1156Y (Homo sapiens, UniProt Q9UM73, C1156Y); assay: ALK C1156Y enzymatic inhibition (HTRF); format: biochemical; conditions: 30 μM ATP
T2 construct: purchased Carna Biosciences (Japan)
T2 sequence (Q9UM73 19-1620 C1156Y): as the sequence (Q9UM73 19-1620 L1196M) above, with C1138Y, M1178L counted along it
Description: as §1, §2
Reaction buffer: 50 mM Hepes (pH7.5), 10 mM MgCl2, 0.01 mM NaV3VO4. […] Reaction was reacted at room temperature for 60 minutes.
as §3

ALK wild-type = target: T3, ALK wild-type (Homo sapiens, UniProt Q9UM73); assay: ALK wild-type enzymatic inhibition (HTRF); format: biochemical; conditions: 30 μM ATP
T3 construct: purchased Carna Biosciences (Japan)
T3 sequence (Q9UM73 19-1620): as the sequence (Q9UM73 19-1620 L1196M) above, with M1178L counted along it
Description: as §1, §2
10 μl wild-type ALK enzyme reaction mixture system: 0.5 nM wild-type ALK, 1 μM biotin-TK1 peptide, 30 μM ATP. Reaction buffer: 50 mM Hepes (pH7.5), 10 mM MgCl2, 0.01 mM NaV3VO4.
as §3

EGFR T790M/L858R = target: T4, EGFR T790M/L858R (Homo sapiens, UniProt P00533, L858R/T790M); assay: EGFR T790M/L858R enzymatic inhibition (HTRF); format: biochemical; conditions: 20 μM ATP
T4 construct: purchased Life technology (Madison, Wis.)
T4 sequence (P00533 25-1210 T790M/L858R): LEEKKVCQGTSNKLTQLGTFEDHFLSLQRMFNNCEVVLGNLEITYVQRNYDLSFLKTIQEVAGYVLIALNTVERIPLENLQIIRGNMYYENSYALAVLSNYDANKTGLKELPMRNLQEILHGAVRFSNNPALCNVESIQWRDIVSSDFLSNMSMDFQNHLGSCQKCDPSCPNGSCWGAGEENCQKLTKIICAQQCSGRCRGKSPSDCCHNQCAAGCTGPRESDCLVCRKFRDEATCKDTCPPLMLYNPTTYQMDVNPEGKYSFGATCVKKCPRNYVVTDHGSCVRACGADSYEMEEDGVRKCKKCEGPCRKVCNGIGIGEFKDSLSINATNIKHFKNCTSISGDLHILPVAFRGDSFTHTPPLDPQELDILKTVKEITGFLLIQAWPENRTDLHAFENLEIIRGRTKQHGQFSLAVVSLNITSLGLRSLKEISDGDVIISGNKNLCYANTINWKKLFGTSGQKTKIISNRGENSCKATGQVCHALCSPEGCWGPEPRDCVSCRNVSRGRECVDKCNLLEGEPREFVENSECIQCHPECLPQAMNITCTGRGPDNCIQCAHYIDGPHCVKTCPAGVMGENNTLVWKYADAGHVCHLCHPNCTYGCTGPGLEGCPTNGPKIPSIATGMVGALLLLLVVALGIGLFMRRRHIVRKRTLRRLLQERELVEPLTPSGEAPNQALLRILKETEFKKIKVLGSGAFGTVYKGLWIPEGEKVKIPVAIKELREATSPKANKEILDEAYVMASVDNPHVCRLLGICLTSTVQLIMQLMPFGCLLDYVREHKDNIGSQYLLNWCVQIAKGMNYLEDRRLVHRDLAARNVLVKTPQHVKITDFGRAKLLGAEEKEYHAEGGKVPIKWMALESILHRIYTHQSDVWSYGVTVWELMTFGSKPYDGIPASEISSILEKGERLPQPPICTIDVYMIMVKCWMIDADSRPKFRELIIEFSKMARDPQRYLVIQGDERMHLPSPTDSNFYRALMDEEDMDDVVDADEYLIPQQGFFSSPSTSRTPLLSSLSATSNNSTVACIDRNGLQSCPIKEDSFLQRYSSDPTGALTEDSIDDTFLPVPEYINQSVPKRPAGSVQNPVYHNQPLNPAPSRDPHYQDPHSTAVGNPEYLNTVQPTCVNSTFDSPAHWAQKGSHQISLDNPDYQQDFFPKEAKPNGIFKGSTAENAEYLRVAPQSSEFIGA
Description: as §1, §2
The compound to be tested is diluted at a gradient by 3 times thereby giving 11 gradients starting from […] to 0.017 nM for the final concentration.
10 μl EGFR T790M/L858R enzyme reaction mixture system: 0.08 nM EGFR T790M/L858R, 1 μM biotin-TK1 peptide, 20 μM ATP. Reaction buffer: 50 mM Hepes (pH7.5), 10 mM MgCl2, 0.01 mM NaV3VO4. The reaction plate was white Proxiplate 384-Plus plate (PerkinElmer). Reaction was reacted at room temperature for 60 minutes.
Detecting reaction: 10 μl testing reagent was added to the reaction plate, the final concentration of Antibody was 2 nM, XL665 was 62.5 nM. Incubation was carried out for 60 minutes at room temperature. Detection was by Envision.

Structure (SMILES): COc1cc(N2CCC(N3CCN(C)CC3)CC2)ccc1Nc1ncc(Cl)c(Nc2ccccc2P(C)(C)=O)n1 [AP26113, reference compound]
Tumor volume ([1]; 3 days): 207 mm^3 | Tumor volume ([1]; 6 days): 174 mm^3 | Tumor volume ([1]; 9 days): 162 mm^3 | Tumor volume ([1]; 12 days): 142 mm^3 | Tumor volume ([1]; 16 days): 119 mm^3 | Tumor volume ([1]; 19 days): 122 mm^3 | Tumor volume ([1]; 23 days): 119 mm^3 | tumor volume was reduced to (from 277 mm^3) ([1]; after 16 days, 25 mg/kg): 119 mm^3 | Tumor volume ([2]; 0 day, dosage 3 mg/Kg orally once a day): 501 mm^3 | Tumor volume ([2]; 0 day, dosage 10 mg/Kg orally once a day): 502 mm^3 | Tumor volume ([2]; 3 days, dosage 3 mg/Kg orally once a day): 656 mm^3 | Tumor volume ([2]; 3 days, dosage 10 mg/Kg orally once a day): 646 mm^3 | Tumor volume ([2]; 7 days, dosage 3 mg/Kg orally once a day): 690 mm^3 | Tumor volume ([2]; 7 days, dosage 10 mg/Kg orally once a day): 604 mm^3 | Tumor volume ([2]; 10 days, dosage 3 mg/Kg orally once a day): 898 mm^3 | Tumor volume ([2]; 10 days, dosage 10 mg/Kg orally once a day): 593 mm^3 | Tumor volume ([2]; 13 days, dosage 3 mg/Kg orally once a day): 1096 mm^3 | Tumor volume ([2]; 13 days, dosage 10 mg/Kg orally once a day): 504 mm^3 | Tumor volume ([2]; 17 days, dosage 3 mg/Kg orally once a day): 1415 mm^3 | Tumor volume ([2]; 17 days, dosage 10 mg/Kg orally once a day): 568 mm^3 | Tumor volume ([2]; 19 days, dosage 3 mg/Kg orally once a day): 1499 mm^3 | Tumor volume ([2]; 19 days, dosage 10 mg/Kg orally once a day): 508 mm^3 | Tumor volume ([3]; 0 days): 371 mm^3 | Tumor volume ([3]; 2 days): 437 mm^3 | Tumor volume ([3]; 6 days): 448 mm^3 | Tumor volume ([3]; 9 days): 485 mm^3 | Tumor volume ([3]; 13 days): 512 mm^3 | Tumor volume ([3]; 16 days): 492 mm^3 | Tumor volume ([3]; 20 days): 457 mm^3 | Tumor volume ([3]; 23 days): 391 mm^3

Structure (SMILES): COc1ccc(C2CC3(CCN(C)C3)C2)cc1Nc1ncc(Cl)c(Nc2ccccc2P(C)(C)=O)n1 (centres unmarked) [Compound 1, (2-((5-chloro-2-((2-methoxy-5-(6-methyl-6-azaspiro[3.4]octan-2-yl)phenyl)amino)pyrimidin-4-yl)amino)phenyl)dimethylphosphine oxide]
IC50 (ALK L1196M): 101 to 1000 nM | IC50 (ALK C1156Y): 101 to 1000 nM | IC50 (ALK wild-type): 1 to 100 nM | IC50 (EGFR T790M/L858R): 101 to 1000 nM

Structure (SMILES): COc1ccc(C2CC3(CC(=O)N(C)C3)C2)cc1Nc1ncc(Cl)c(Nc2ccccc2P(C)(C)=O)n1 (centres unmarked) [Compound 2, 2-(3-((5-Chloro-4-((2-(dimethylphosphoryl)phenyl)amino)pyrimidin-2-yl)amino)-4-methoxyphen-yl)-6-methyl-6-azaspiro[3.4]octan-7-one]
IC50 (ALK L1196M): 101 to 1000 nM | IC50 (ALK C1156Y): 101 to 1000 nM | IC50 (ALK wild-type): 101 to 1000 nM | IC50 (EGFR T790M/L858R): 101 to 1000 nM

Structure (SMILES): COc1cc(N2CCC3(CCN(C)CC3)CC2)ccc1Nc1ncnc(Nc2ccccc2P(C)(C)=O)n1 [Compound 16, (2-((4-((2-Methoxy-4-(9-methyl-3,9-diazaspiro[5.5]undecan-3-yl)phenyl)amino)-1,3,5-triazin-2-yl)amino)phenyl)dimethyl phosphine oxide]
IC50 (ALK L1196M): 101 to 1000 nM | IC50 (ALK C1156Y): 101 to 1000 nM | IC50 (ALK wild-type): 101 to 1000 nM | IC50 (EGFR T790M/L858R): 1 to 100 nM

Structure (SMILES): COc1cc(N2CCC3(CCN(C)CC3)CC2)ccc1Nc1nc(Nc2ccccc2P(C)(C)=O)c2cc[nH]c2n1 [Compound 17, (2-((2-(amino)-7H-pyrrolo[2,3-D](2-methoxy-4-(9-methyl-3,9-diazaspiro[5.5]undecan-3-yl)phenyl)pyrimidin-4-yl)amino)phenyl)dimethyl phosphine oxide]
IC50 (ALK L1196M): 1 to 100 nM | IC50 (ALK C1156Y): 1 to 100 nM | IC50 (ALK wild-type): 1 to 100 nM | IC50 (EGFR T790M/L858R): 1 to 100 nM

Structure (SMILES): Cc1cc(Nc2ncc(Cl)c(Nc3ccccc3S(=O)(=O)C(C)C)n2)c(OC(C)C)cc1C1CCNCC1 [LDK378]
Tumor volume ([3]; 0 days): 373 mm^3 | Tumor volume ([3]; 2 days): 397 mm^3 | Tumor volume ([3]; 6 days): 366 mm^3 | Tumor volume ([3]; 9 days): 350 mm^3 | Tumor volume ([3]; 13 days): 425 mm^3 | Tumor volume ([3]; 16 days): 369 mm^3 | Tumor volume ([3]; 20 days): 329 mm^3 | Tumor volume ([3]; 23 days): 268 mm^3

Other lines, results leading:

IC50 (ALK L1196M): 101 to 1000 nM | IC50 (ALK C1156Y): 101 to 1000 nM | IC50 (ALK wild-type): 1 to 100 nM | IC50 (EGFR T790M/L858R): 101 to 1000 nM
Structure (SMILES): COc1cc(N2CCC3(CN(C)C3)C2)ccc1Nc1ncc(Cl)c(Nc2ccccc2P(C)(C)=O)n1 [Compound 7, (2-((5-Chloro-2-((2-methoxy-4-(2-methyl-2,6-diazaspiro[3.4]octan-6-yl)phenyl)amino)pyrimidin-4-yl)amino)phenyl)dimethyl phosphine oxide]

IC50 (ALK L1196M): 1 to 100 nM | IC50 (ALK C1156Y): 1 to 100 nM | IC50 (ALK wild-type): 1 to 100 nM | IC50 (EGFR T790M/L858R): 1 to 100 nM
Structure (SMILES): COc1cc(N2CCC3(CC2)CCN(C(C)C)CC3)ccc1Nc1ncc(Cl)c(Nc2ccccc2P(C)(C)=O)n1 [Compound 10, (2-((5-Chloro-2-((4-(9-isopropyl-3,9-diazaspiro[5.5]undecan-3-yl)-2-methoxyphenyl)amino)pyrimidin-4-yl)amino)phenyl)dimethyl phosphine oxide]

IC50 (ALK L1196M): 1 to 100 nM | IC50 (ALK C1156Y): 1 to 100 nM | IC50 (ALK wild-type): 1 to 100 nM | IC50 (EGFR T790M/L858R): 1 to 100 nM
Structure (SMILES): COc1cc(N2CCC3(CC2)CC(N(C)C)C3)ccc1Nc1ncc(Cl)c(Nc2ccccc2P(C)(C)=O)n1 [Compound 13, (2-((5-Chloro-2-((4-(2-(dimethylamino)-7-azaspiro[3.5]nonan-7-yl)-2-methoxyphenyl)amino)pyrimidin-4-yl)amino)phenyl)dimethyl phosphine oxide]

IC50 (ALK L1196M): 1 to 100 nM | IC50 (ALK C1156Y): 1 to 100 nM | IC50 (ALK wild-type): 1 to 100 nM | IC50 (EGFR T790M/L858R): 1 to 100 nM
Structure (SMILES): COc1cc(N2CCC3(CCC(N(C)C)CC3)CC2)ccc1Nc1ncc(Cl)c(Nc2ccccc2P(C)(C)=O)n1 [Compound 14, (2-((5-Chloro-2-((4-(9-(dimethylamino)-3-azaspiro[5.5]undecan-3-yl)-2-methoxyphenyl)amino)pyrimidin-4-yl)amino)phenyl)dimethyl phosphine oxide]

IC50 (ALK L1196M): 101 to 1000 nM | IC50 (ALK C1156Y): > 1000 nM | IC50 (ALK wild-type): > 1000 nM | IC50 (EGFR T790M/L858R): > 1000 nM
Structure (SMILES): COc1cc(N2CCC3(CCN(C)CC3)CC2)ccc1Nc1ncc(C(F)(F)F)c(Nc2ccccc2P(C)(C)=O)n1 [Compound 15, (2-((2-((2-Methoxy-4-(9-methyl-3,9-diazaspiro[5.5]undecan-3-yl)phenyl)amino)-5-(trifluoromethyl)pyrimidin-4-yl)amino)phenyl)dimethyl phosphine oxide]
